Laboratory results reported in PMC7354613 (Viruses, 2020).
Where two headings read alike, the source gives them in different places.

Experiments:
[1] = system: OM-10.1 cells latently infected with HIV-1; test: HIV activation dose response, Gag p24 ELISA of supernatant, OM-10.1 cells; format: cell-based; details: Human immunodeficiency virus 1, 48 h, read-out: EC50 HIV activation OM-10.1
[2] = system: U1 cells latently infected with HIV-1; test: HIV reactivation, Gag p24 ELISA of supernatant, U1 cells; format: cell-based; details: Human immunodeficiency virus 1, 48 h, read-out: EC50 HIV activation U1
[3] = system: ACH-2 cells latently infected with HIV-1; test: HIV reactivation, Gag p24 ELISA of supernatant, ACH-2 cells; format: cell-based; details: Human immunodeficiency virus 1, ACH-2, 48 h, read-out: EC50 HIV activation ACH-2
[4] = system: J-Lat 10.6 cells; test: HIV reactivation, GFP expression by flow cytometry, J-Lat 10.6 cells; format: cell-based, HIV-1; details: for EC50: Human immunodeficiency virus 1, J-Lat 10.6, 48 h, read-out: EC50 HIV activation J-Lat 10.6; for GFP expression with respect to the PMA control set to 100: J-Lat 10.6, 48 h, 0.5 µM PKCa, 0.3 µM HDACi
[5] = system: J-Lat A2 cells; test: HIV reactivation, GFP expression by flow cytometry, J-Lat A2 cells; format: cell-based, HIV-1; details: Human immunodeficiency virus 1, J-Lat A2, 48 h, read-out: EC50 HIV activation J-Lat A2
[6] = Cytotoxicity, CellTiter-Blue, OM-10.1 cells; format: cell-based; details: human, 48 h treatment, mean ± SD, n = 3
[7] = Cytotoxicity, CellTiter-Blue, U1 cells; format: cell-based; details: human, 48 h treatment, mean ± SD, n = 3
[8] = Cytotoxicity, CellTiter-Blue, ACH-2 cells; format: cell-based; details: human; 48 h treatment; mean ± SD, n = 3
[9] = Cytotoxicity, CellTiter-Blue, J-Lat 10.6 cells; format: cell-based; details: human, 48 h treatment, mean ± SD, n = 3
[10] = Cytotoxicity, CellTiter-Blue, J-Lat A2 cells; format: cell-based; details: human, 48 h treatment, mean ± SD, n = 3
[11] = system: OM-10.1, U1, ACH-2, J-Lat 10.6 and J-Lat A2 cells; format: cell-based, HIV-1; details: read-out: EC50 HIV activation
[12] = system: total CD4+ T-cells; test: CD4 and CD3 surface expression by flow cytometry; format: cell-based, human; details: 24 h, 0.5 µM PKCa, 0.3 µM HDACi, untreated about 97%
[13] = system: OM-10.1 cells latently infected with HIV-1; test: HIV RNA by real-time qRT-PCR, OM-10.1 cells; format: cell-based; details: 48 h
[14] = system: OM-10.1 cells latently infected with HIV-1; test: Envelope gp120 expression by flow cytometry, OM-10.1 cells; format: cell-based; details: live cells
[15] = system: ACH-2 cells latently infected with HIV-1; test: Envelope gp120 expression by flow cytometry, ACH-2 cells; format: cell-based; details: live cells
[16] = system: OM-10.1 cells latently infected with HIV-1; test: Gag p24 immunoblot with densitometry, OM-10.1 cells; format: cell-based; details: 48 h
[17] = Human immunodeficiency virus 1, range over all the cell lines tested, 48 h

| Molecule | EC50 [1] [nM] | EC50 [2] [nM] | EC50 [3] [nM] | EC50 [4] [nM] | EC50 [5] [nM] | CC50 at 48 h [7] [µM] | CC50 at 48 h [9] [nM] | CC50 at 48 h [10] [nM] | cells expressing CD4 (CD4 expression, R1) [12] | GFP expression with respect to the PMA control set to 100 [4] [%] | CC50 [8] [nM] | EC50 [11, 17] [nM] | CC50 [6] [nM] | also measured |
| --- | --- | --- | --- | --- | --- | --- | --- | --- | --- | --- | --- | --- | --- | --- |
| CC(C)C1C(=O)NC(CO)Cc2c[nH]c3cccc(c23)N1C (single isomer, unassigned; (-)) [(-)-Indolactam V] | 90 ± 20 | 120 ± 20 | 180 ± 30 | 200 ± 40 | 320 ± 50 | > 8 | > 8000 | > 8000 | 5.5% |  |  |  |  | CC50 at 48 h [6]: > 8000 nM; CC50 at 48 h [8]: > 8 µM; EC50 ([11]; Human immunodeficiency virus 1, 48 h): 90 to 320 nM |
| CC(C)[C@H](C(=O)Nc1ccc(C(=O)NO)cc1)c1ccccc1 [AR-42] | 530 ± 80 | 260 ± 100 | 240 ± 40 | 550 ± 20 | 440 ± 50 | ~8 | 450 ± 20 | 530 ± 50 |  | 10.2 | 410 ± 10 | 240 to 550 |  | CC50 at 48 h ([6]; OM-10.1 cells): 400 ± 10 nM |
| O=C(/C=C/c1cccc(S(=O)(=O)Nc2ccccc2)c1)NO [Belinostat] | 880 ± 400 | 770 ± 10 | 440 ± 30 | 940 ± 30 | 940 ± 50 | > 8 | 1400 ± 60 | 1400 ± 20 |  |  | 1100 ± 200 | 440 to 940 |  | CC50 at 48 h ([6]; OM-10.1 cells): 2700 ± 200 nM |
| CCN(CC)Cc1ccc2cc(COC(=O)Nc3ccc(C(=O)NO)cc3)ccc2c1 [Givinostat] | 450 ± 130 | 630 ± 20 | 320 ± 40 | 880 ± 40 | 700 ± 50 | ~4 | 930 ± 40 | 1200 ± 20 |  | 2.9 | 630 ± 30 |  | 420 ± 10 |  |
| CN(C)Cc1c(C(=O)NCCOc2ccc(C(=O)NO)cc2)oc2ccccc12 [PCI-24781] | 350 ± 40 | 460 ± 30 | 370 ± 40 | 450 ± 20 | 380 ± 50 | ~8 | 400 ± 20 | 540 ± 30 |  | 6.5 | 310 ± 20 |  | 400 ± 20 |  |
| CCCCCCCCCCCCCC(=O)O[C@@H]1[C@@H](C)[C@@]2(O)[C@@H](C=C(CO)C[C@]3(O)C(=O)C(C)=C[C@@H]23)[C@@H]2C(C)(C)[C@]12OC(C)=O [PMA, phorbol 12-myristate 13-acetate] |  |  |  |  |  |  |  |  |  |  |  |  |  | HIV-1 RNA expression, fold with respect to the untreated control ([13]; cell-associated RNA): about 10 fold; cells expressing gp120 ([14]; 24 h): 50%; cells expressing gp120 ([14]; 48 h): 24%; cells expressing gp120 ([15]; 24 h): 46%; cells expressing gp120 ([15]; 48 h): 43% |
| CC(=O)O[C@@]12C[C@@H](C)[C@@]3(O)[C@@H](C=C(CO)C[C@]4(O)C(=O)C(C)=C[C@@H]34)[C@@H]1C2(C)C [Prostratin] | 410 ± 30 | 300 ± 30 | 310 ± 70 | 680 ± 10 | 870 ± 30 | > 8 | > 8000 | > 8000 | about 53% | 37 | > 8000 | 300 to 870 | > 8000 |  |
| CC(C)[C@H]1C(=O)N[C@H](CO)Cc2cc(NC(=O)/C=C/C=C/c3ccc(C(F)(F)F)cc3)ccc2N1C [TPPB] | 130 ± 10 | 210 ± 10 | 70 ± 10 | 510 ± 80 | 490 ± 30 | > 8 | > 8000 | > 8000 | 18% |  | > 8000 |  | > 8000 |  |
| TNFα |  |  |  |  |  |  |  |  |  |  |  |  |  | HIV-1 RNA expression, fold with respect to the untreated control ([13]; cell-associated RNA): 300 fold; HIV-1 RNA expression, fold with respect to the PMA-treated control ([13]; cell-associated RNA, 0.5 µM PKCa, 0.3 µM HDACi): about 30 fold; extracellular viral RNA, fold with respect to PMA-treated control ([13]; culture supernatant): 1.5 fold; cell-associated Gag p24, fold compared to treatment with PMA ([16]; immunoblot densitometry): 12–30 fold; extracellular p24, fold with respect to PMA-treated control ([16]; viral lysate immunoblot): 1.5 fold; cells expressing gp120 ([14]; 24 h): 70%; cells expressing gp120 ([14]; 48 h): 42% |
